The text below walks through data of publication PMC7998250, “Temperate Zone Plant Natural Products—A Novel Resource for Activity against Tropical Parasitic Diseases” (Pharmaceuticals, 2021).

Series [1] has as its system T. brucei bloodstream form. Kind of series: Initial screen, T. brucei bloodstream form, Alamar Blue. The class given is cell-based, Trypanosoma brucei brucei. As to conditions: for activity at 2 µM / inhibition of growth at 2 µM: Trypanosoma brucei; for activity at 2 µM: initial screen; for initial hit against T. brucei / inhibition of growth at 2 µM: 2 μM; for initial hit against T. brucei: growth reduced by ≥50%; for inhibition of growth at 2 µM: x = initial hit, read-out: initial hit T.b. On the procedure: (§1) 634 compounds from the PhytoQuest Phytopure temperate plant natural product library were screened for growth inhibitory activity against L. mexicana axenic amastigotes, T. brucei bloodstream form, intraerythrocytic asexual P. falciparum (at 2 μM) and T. evansi bloodstream form parasites (at 1 μM). […] Our initial hits were defined as reducing growth of the parasite by ≥50%.
(§2) L. mexicana strain MNYC/BZ/62/M379 and L. donovani strain LdBOB (a clonal line from strain MHOM/SD/62/1S-CL2) were maintained in vitro in the procyclic promastigote stage. Parasites were cultivated at 26 °C in Schneider’s medium (Gibco) pH 7.0 containing 10% FBS, 100 U/mL penicillin (Lonza) and 100 μg/mL streptomycin (Lonza) as previously described. Differentiation into axenic amastigotes was performed as described previously. Briefly, axenic amastigotes were cultivated at 32 °C in Schneider’s medium pH 5.5 containing 10% FBS, 100 U/mL penicillin (Lonza) and 100 μg/mL streptomycin (Lonza). Bloodstream form T. brucei brucei strain Lister 427 and T. evansi strain Antat 3/3 [59] were maintained in vitro at 37 °C with 5% (v/v) CO2 in HMI-11 medium supplemented with 10% FBS, as described elsewhere. Intraerythrocytic cultures of P. falciparum Dd2^Luc strain [62] were maintained at 37 °C in a 1% O2:3% CO2:96% N2 atmosphere in RPMI-1640 containing 37.5 mM HEPES, 5 mM NaOH, 10 mM D-glucose, 2 mM L-glutamine, 100 μM hypoxanthine, […] gentamicin sulfate, 5% human serum and 5% albumax-II and 2% haematocrit erythrocytes. When required, cultures were synchronised to ring stages using the sorbitol lysis method. Preliminary cytotoxicity screening was assessed using HepG2 cells. These cells were maintained in vitro at 37 °C with 5% (v/v) CO2 in DMEM (Sigma) pH 7 supplemented with 10% FBS, 100 U/mL penicillin (Lonza) and 100 μg/mL streptomycin (Lonza), as previously described. The human monocyte cell line THP-1 [68] was maintained in vitro by culturing at 37 °C with 5% (v/v) CO2 in complete RPMI medium (Dutch modified RPMI-1640 (Gibco) containing 10% FBS and 2 mM L-glutamine (Gibco)). Differentiation of THP-1 cells into macrophages was performed by seeding 2.5 × 10^5 cells/mL in complete RPMI media, supplemented with 20 ng/mL phorbol 12-myristate 13-acetate (PMA), followed by incubation at 37 °C with 5% (v/v) CO2 for 24 h.
(§3) The library was provided as 634 non-polar compounds (1 mg/mL in DMSO). Initial screening was performed in a 96-well plate with 200 μL of parasite culture. The initial screen used each compound at a final concentration of 2 μM for L. mexicana axenic amastigotes, T. brucei and P. falciparum, and at 1 μM for T. evansi. L. mexicana axenic amastigotes were plated at 1 × 10^6 cells/mL, incubated for 72 h, and the Alamar Blue assay was used to assess parasite growth. Each compound was tested in triplicate, with two biological replicates (n = 6). T. brucei and T. evansi were plated at 1×10^5 cells/mL for 48 h, and the Alamar Blue assay was used to assess parasite growth. Each compound was tested in triplicate with two biological replicates (n = 6). Intraerythrocytic P. falciparum in the trophozoite stage were seeded at 0.5% parasitaemia and 2% haematocrit for 48 h, and the Malaria SYBR-Green I fluorescence assay was used to assess parasite growth. Each compound was tested in duplicate with two biological replicates (n = 4). Negative controls comprised an equivalent volume of DMSO (equivalent of 1% v/v) to normalise the growth data. Data points >100% growth and <0% growth were tabulated as 100% and 0%, respectively. Some compounds were not tested in all parasite lines as there was insufficient material remaining.

For series [2], the system named is P. falciparum Dd2Luc intraerythrocytic trophozoites. Kind of series: Initial screen, intraerythrocytic P. falciparum, Malaria SYBR-Green I fluorescence assay. Format: cell-based, Plasmodium falciparum. The method, then:
(§4) 634 compounds from the PhytoQuest Phytopure temperate plant natural product library were screened for growth inhibitory activity against L. mexicana axenic amastigotes, T. brucei bloodstream form, intraerythrocytic asexual P. falciparum (at 2 μM) and T. evansi bloodstream form parasites (at 1 μM). […] Our initial hits were defined as reducing growth of the parasite by ≥50%. […]
as §3, with “The PhytoQuest Phytopure library is a commercially available collection of purified compounds isolated predominantly from temperate zone plants, with structures confirmed by NMR and mass spectrometry. The library” for “The library”

Series [3] relates to L. mexicana axenic amastigotes. Kind of series: Initial screen, L. mexicana axenic amastigotes, Alamar Blue. The class given is cell-based, Leishmania mexicana. On the procedure: as §4
as §3, with “The PhytoQuest Phytopure library is a commercially available collection of purified compounds isolated predominantly from temperate zone plants, with structures confirmed by NMR and mass spectrometry. The library” for “The library”

The test system of series [4] is T. evansi bloodstream form. The series is described as follows: Initial screen, T. evansi bloodstream form, Alamar Blue. The class given is cell-based, Trypanosoma evansi. As to conditions: Trypanosoma evansi; for activity at 1 µM: initial screen; for inhibition of growth at 1 µM: x = initial hit, read-out: initial hit T.e. On the procedure:
as §1, §2, §3

A short description of a further series: in vitro. The note with it: human, pH 7, HepG2 CC50.
Excerpt: Initial hits from the parasite panel screen were taken forward in log concentration versus normalised response assays to estimate the half maximal effective concentration (EC50) in hit species as well as the half maximal cytotoxic concentrations (CC50) in the human hepatoma cell line HepG2 as a preliminary test for selectivity. Using CC50/EC50 to define the selectivity index (SI), the selectivity for each compound in a defined species compared to a human cell line was estimated and compared to the EC50 (Figure 3).
as §2
EC50 values were determined by serial two-fold dilution of each compound in 96 well plates. Culture conditions and viability assays were as stated for the initial screen, with some exceptions. L. mexicana and L. donovani axenic amastigotes were seeded at 2 × 10^6 cell/s mL, T. brucei and T. evansi were seeded at 2 × 10^5 cells/mL. For cytotoxicity studies, HepG2 cells were seeded at 1 × 10^5 cells/mL, incubated for 48 h and viability was assessed using the Alamar Blue assay. Differentiated THP-1 cells were seeded at 5 × 10^4 cells/mL, incubated for 48 h, and viability was assessed by the Alamar Blue assay. Normalised growth and viability data (compared to untreated controls) were plotted against Log10 concentration to estimate EC50 in GraphPad (Prism v6). Bioluminescence relative rate of kill assays in asexual intraerythrocytic P. falciparum Dd2^Luc were carried out as described.

In another series the test system is T. brucei. Kind of series: Concentration-response EC50, T. brucei. The class given is cell-based, Trypanosoma brucei brucei. As to conditions: Trypanosoma brucei, 48 h, bloodstream form, 48 h; read-out: T. brucei EC50.
Setting [5] is: mean % growth compared to a normalised control with same concentration of DMSO solvent, read-out: % growth T. b. brucei.
[6] abbreviates: Plasmodium falciparum, 48 h, read-out: %growth P. falciparum, mean % growth compared to a normalised control with same concentration of DMSO solvent, initial screen.
Setting [7] is: Leishmania mexicana, read-out: % growth L. mexicana, mean % growth compared to a normalised control with same concentration of DMSO solvent, initial screen.
The mark [8] stands for this setting: mean % growth compared to a normalised control with same concentration of DMSO solvent, read-out: % growth T. evansi.
Where [9] appears, read: compared to a normalised control with same concentration of DMSO solvent, read-out: mean % growth, T. b. brucei.
Where [10] appears, read: Plasmodium falciparum, 48 h, read-out: mean % growth, P. falciparum, initial screen, compared to a normalised control with same concentration of DMSO solvent.
The mark [11] stands for this setting: Leishmania mexicana, read-out: mean % growth, L. mexicana, initial screen, compared to a normalised control with same concentration of DMSO solvent.
Where [12] appears, read: compared to a normalised control with same concentration of DMSO solvent, read-out: mean % growth, T. evansi.

Like-named read-outs stand apart in the source and are kept apart here.

With `CC(=O)OC1C(O)C(C)OC(OC2C(OC(=O)C3C[C@@H]4OC5(CC(OC(=O)/C=C/c6ccccc6)[C@@H](C)CO5)C(O)(CO)[C@@H]4CO3)OC(C)C(O)C2OC(C)=O)C1O` (single isomer, unassigned) [Compound 700047], the activity at 2 µM in series [1] (setting [5]) stood at 61%; in series [2] (setting [6]), 41.8%; in series [3] (setting [7]) it was 60%. Moreover, the inhibition of growth at 2 µM in series [2] (Plasmodium falciparum, 48 h, read-out: initial hit P.f) was over 50%. In addition, the activity at 1 µM in series [4] (setting [8]) was 90.2%.
What is called EC50 is the concentration at which the effect is half-maximal. For `CC(C)c1ccc2c(c1)CCC1C(C)(C=O)CCCC21C` (stereo not shown) [Compound 700014], the “initial hit against T. brucei” value in series [1] is recorded as “initial hits”. Also, the activity at 2 µM came out at 25.2% in series [1] (setting [5]), 107% in series [2] (setting [6]) and 56.9% in series [3] (setting [7]). In addition, the inhibition of growth at 2 µM in series [1] is over 50%. In “in vitro”, the CC50 at 48 h was found to be 40 µM. For the same molecule, in series [2] (2 μM), the “activity against P. falciparum in screen” value is “neither 700014 or 700063 showed activity against P. falciparum”. The “decrease of L. mexicana survival” value in series [3] (2 μM, 72 h) is recorded as about 70%. Also, the EC50 in the series on T. brucei was found to be 1.1 µM. For the same molecule, the activity at 1 µM in series [4] (setting [8]) turned out to be 93%.
For `CC(C)c1ccc2c(c1)CCC1C(CCCC1C(=O)O)O2` (stereo not shown) [Compound 700110], the activity at 2 µM in series [1] (setting [5]) was 87.2%; in series [2] (setting [6]) it was 105%; in series [3] (setting [7]), 52.4%. Besides, in series [4] (setting [8]), the activity at 1 µM was found to be 47.9%. Moreover, the inhibition of growth at 1 µM in series [4] is over 50%.
With `C/C1=C\C2OC(=O)C(=O)C2CC/C(C(=O)OC2OC(CO)C(O)C(O)C2O)=C\CC1` (stereo not shown) [Compound 700458], the activity at 2 µM came to 78.2% in series [1] (setting [9]), 119% in series [2] (setting [10]) and 48.5% in series [3] (setting [11]). In addition, the activity at 1 µM in series [4] (setting [12]) worked out at 48.2%. Further, in series [4], the inhibition of growth at 1 µM was over 50%.
On to `O=C1C=CC(O)(c2cc(=O)c3c(O)cc(O)cc3o2)C=C1` [Compound 700586], for which the “initial hit against T. brucei” value in series [1] was “initial hits”. Also, the activity at 2 µM in series [1] (setting [9]) is 3.1%; in series [2] (setting [10]) it was 77%; in series [3] (setting [11]), 56.5%. In series [1], the inhibition of growth at 2 µM was over 50%. The CC50 at 48 h in the series “in vitro” was 3.6 µM. Moreover, the EC50 in the series on T. brucei amounted to 0.63 µM.
For `COc1cc2ccc(=O)oc2c(OC)c1OCC1C(C)=CCC2C(C)(C)C(O)CCC12C` (stereo not shown) [Compound 700867], in series [1], the “initial hit against T. brucei” value is recorded as “initial hits”. The activity at 2 µM in series [1] (setting [9]) was found to be 19.3%; in series [2] (setting [10]) it was 104%; in series [3] (setting [11]), 60.7%. In addition, the inhibition of growth at 2 µM in series [1] was over 50%. Moreover, the CC50 at 48 h in the series “in vitro” amounted to 27 µM. Further, the EC50 in the series with T. brucei is 2.6 µM. Moreover, in series [4] (setting [12]), the activity at 1 µM is 126%.
In the case of `CC(C)C(=O)OC1C2C(CC(C)C3C=CC(=O)C31C)OC(=O)C2C` (stereo not shown) [Compound 701156], the “initial hit against T. brucei” value in series [1] is given as “initial hits”. For the same molecule, the activity at 2 µM in series [1] (setting [9]) was 24.3%; in series [2] (setting [10]), 93.7%; in series [3] (setting [11]), 52.7%. Also, the inhibition of growth at 2 µM in series [1] is over 50%. Further, the half-maximal effective concentration (EC50) in the series on T. brucei was determined as 0.99 µM. Also, in series [4] (setting [12]), the activity at 1 µM was found to be 113%.
Take `C#CC#CCc1ccccc1C(=O)OC` [Compound 701248]: the activity at 2 µM in series [1] (setting [9]) was 60.9%; in series [2] (setting [10]), 100%; in series [3] (setting [11]), 19.2%. Besides, the “initial hit against L. mexicana” value in series [3] (2 μM, growth inhibited by ≥80%) is reported as “initial hits”. For the same molecule, the inhibition of growth at 2 µM in series [3] (Leishmania mexicana, 2 μM, x = initial hit, read-out: initial hit L.m) is over 80%.
